Source: article PMC11638965, “Leveraging Dual-Ligase Recruitment to Enhance Protein Degradation via a Heterotrivalent Proteolysis Targeting Chimera” (Journal of the American Chemical Society, 2024)
“Also recorded” adds a separate entry of the source. Where two headings read alike, the source gives them in different places.

How the values were obtained:
RKO CRBN KO cells [1] = experiment: Cell viability assay (CellTiter-Glo); type: cell-based, human; settings: 500 pM to 10 μM, 3 days (Figure 10, Table S6)
RKO CRBN/VHL dKO cells = experiment: Cell viability assay (CellTiter-Glo); type: cell-based, human
Description: (§1) RKO WT, VHL KO, CRBN KO and CRBN/VHL dKO cells were cultured in Dulbecco’s modified Eagle’s medium supplemented with 10% FCS and 1% penicillin–streptomycin. RKO CRBN KO and VHL KO were generated previously.[45] RKO CRBN/VHL dKO cells were generated by transiently expressing pSpCas9(BB)-2A-GFP (PX458) (Addgene 48138) loaded with a short guide RNA (sgRNA) targeting VHL (Fwd: […], Rev: […]) in RKO CRBN KO cells. Clones were single cell seeded and checked for VHL and CRBN double deletion via Western blot or PCR on genomic DNA (gDNA).
(§2) Cells were seeded in 96-well plates at a cell density of 3750 cells per well and treated for 3 days with DMSO or drug at ten √10 serial diluted concentrations. Starting concentration for all drugs was 10 μM, and each treatment was performed in biological triplicates. Cell viability was assessed using the CellTiter-Glo assay (CellTiter-Glo Luminescent Cell Viability Assay, Promega G7573) according to manufacturer instructions. Luminescence signal was measured on a Multilabel Plate Reader Platform Victor X3 model 2030 (PerkinElmer). Survival curves and EC50 values were determined using GraphPad Prism v.10.0.3 by fitting a nonlinear regression to the log10-transformed drug concentration and the relative viability after normalization of each data point to the mean luminescence of the lowest drug concentration.

RKO VHL KO cells = experiment: Cell viability assay (CellTiter-Glo); type: cell-based, human
Description: as §1, §2

RKO WT cells = experiment: cells; type: cell-based, human
Description: as §1
as §2, with “Starting concentration for all drugs was 10 μM, and each treatment was performed in biological triplicates.” left out

BRD4 = BRD4 (Homo sapiens, UniProt O60885); experiment: Live cell kinetic HiBiT degradation assay, HiBiT-BRD4 HEK293 cells (parental, CRBN KO, VHL KO); type: cell-based; settings: parental, CRBN KO and VHL KO HiBiT-BRD4 HEK293 cells (Figure S5); listed as 93
Description: HEK293 HiBiT-BRD2 (LgBiT stable), HEK293 HiBiT-BRD3 (LgBiT stable), and HEK293 HiBiT-BRD4 (LgBiT stable) were created using CRISPR/Cas9 to insert at HiBiT tag at the N-terminal genomic loci of BRD2, BRD3, or BRD4 in a cell line stably expressing LgBiT protein as described previously.[23]
For kinetic degradation experiments, HEK293 HiBiT-BRD2, 3, or 4 (LgBiT stable) cells and HEK293 HiBiT-BRD4 (LgBiT) CRBN KO and VHL KO cells were plated at 20,000 cells/well in DMEM +10% FBS in white 96-well tissue culture plates and allowed to adhere overnight. The next day, media was removed and 90 μL of prewarmed CO2-independent medium (Gibco) containing Endurazine (Promega) at a 1:100 dilution from stock was added. Plates were incubated at 37 °C for 3 h to allow luminescence to equilibrate. A threefold dilution series of each PROTAC at 10x the desired final concentration was prepared (with the amount of DMSO in each treatment condition kept constant). After luminescence equilibration, a preread luminescence measurement was taken (prior to compound addition) to allow for baseline normalization to account for possible plating differences. Cells were then treated with 10 μL of the prepared PROTAC dilution series (in triplicate or quadruplicate). Treated plates were placed in a GloMax Discover luminometer (Promega) prewarmed to 37 °C and luminescence measurements were obtained every 7 min for 24 h. Kinetic degradation plots were obtained by first normalizing time course luminescence readings in each well to the preread measurement, then to the average value of the DMSO only control at each time point. Data was analyzed using GraphPad Prism (version 8) and excel. Dmax values were identified as the lowest luminescence reading in each well. Rate constant values were calculated using a one phase exponential decay Y = (Y0-Plateau) e(K*^X) + Plateau using Prism (Y0 constrained to 1). Dmax 50 values were calculated by plotting Dmax as a function of concentration, then fitting plots using the following equation: [drawing 1] to determine IC50.
HiBiT-BRD4 (LgBiT stable) HEK293 cells (Promega) were used to generate both VHL KO HiBiT-BRD4 (LgBiT stable) and CRBN KO HiBiT-BRD4 (LgBiT stable) cell lines. For VHL, gRNAs targeting exon 1 ([…]) and exon 2 ([…]) and for CRBN, gRNAs targeting exon 3 ([…]) and exon 6 ([…]) were purchased from IDT DNA (Table 5). For each gRNA, tracrRNA/crRNA duplexes were formed by combining 10 μL of 100 μM Alt-R […] (IDT), 100 μM Alt-R crRNA (IDT) and heating at 95C for 5 min, then were allowed to cool to room temp for 20 min. RNPs were then formed by combining 75 pmol Cas9 (IDT) with 2.4 μL total of prepared tracrRNA/crRNA complex (1.2 μL for each gRNA targeting each exon). Cells were then trypsinized and resuspended at 10,000,000 cells/mL in 1 mL of Mirus Ingenio electroporation solution. Three μL of 100 μM electroporation enhancer (Mirus) was added, along with 3 μL of RNP solution. Cells were electroporated in 2 mm cuvettes using a BioRad system (190 V, 950 μF, infinite resistance) and were then plated in a T75 flask in full growth medium to allow for recovery. After recovery from electroporation, knockout pools were sorted for single cells in 96-well tissue culture treated plates. Clonal populations which expanded from single cells were then screened for loss of function of VHL by treating with MZ1, or loss of function of CRBN by treating with dBET6, using a HiBiT-BRD4 luminescent readout assay. Genomic DNA isolated from candidate clones was then PCR-amplified (Table of primers below), Gibson-assembled into a pF1A plasmid backbone, transformed into E. coli., and then Sanger sequenced to confirm presence of indels in the targeted exons. […] VHL exon 3 carried a 19 bp deletion on one allele, and a 1 bp insertion on the other allele, both occurring after the premature stop codon in exon 1.

RKO CRBN KO cells [2] = experiment: Cell viability assay (CellTiter-Glo); type: cell-based, human; settings: Homo sapiens, 72 h, 316 pM to 10 μM, 3 days, n = 6 (Figure 3C, Table S1)
Description: as §1, §2

KBM7 cells = experiment: Cell viability assay (CellTiter-Glo); type: cell-based, human; settings: Homo sapiens, KBM-7; WT KBM7, 5.12 pM to 10 uM, n = 3 (Table S4)
Description: as §2, with “[…],” for “3750 cells per well and treated for 3 days with DMSO or drug at ten √10 serial diluted concentrations. Starting concentration for all drugs was 10 μM,”

K562 cells = experiment: Cell viability assay (CellTiter-Glo); type: cell-based, human; settings: Homo sapiens; WT K562, 5.12 pM to 10 uM, n = 3 (Table S4)
Description: as §2, with “[…],” for “3750 cells per well and treated for 3 days with DMSO or drug at ten √10 serial diluted concentrations. Starting concentration for all drugs was 10 μM,”

[3] = Homo sapiens, 72 h, 500 pM to 10 μM, 3 days (Figure 10, Table S6), read-out: EC50 RKO WT

SMILES | EC50 (RKO CRBN KO cells [1]; listed as 93) | EC50 (RKO CRBN KO cells [1]; Homo sapiens, 72 h) | EC50 (RKO CRBN/VHL dKO cells; 500 pM to 10 μM, 3 days (Figure 10, Table S6), read-out: EC50 RKO CRBN/VHL dKO) | EC50 (RKO CRBN/VHL dKO cells; Homo sapiens, 72 h, 500 pM to 10 μM, 3 days (Figure 10, Table S6), read-out: EC50 RKO CRBN/VHL dKO) | EC50 (RKO VHL KO cells; 500 pM to 10 μM, 3 days (Figure 10, Table S6)) | EC50 (RKO VHL KO cells; Homo sapiens, 72 h, 500 pM to 10 μM, 3 days (Figure 10, Table S6)) | EC50 (RKO WT cells; 500 pM to 10 μM, 3 days (Figure 10, Table S6), listed as 93, read-out: EC50 RKO WT) | EC50 (RKO WT cells; [3]) | on-target BRD4 degradation activity (in words) (BRD4) | EC50 (RKO CRBN/VHL dKO cells; Homo sapiens, Figure 10 experiment, read-out: EC50 RKO VHL/CRBN dKO) | EC50 (RKO CRBN/VHL dKO cells; Homo sapiens, both VHL and CRBN knocked out (Figure 3C), read-out: EC50 RKO CRBN/VHL dKO) | EC50 (RKO CRBN KO cells [2]) | EC50 (RKO VHL KO cells; Homo sapiens, 72 h, 316 pM to 10 μM, 3 days, n = 6 (Figure 3C, Table S1)) | EC50 (RKO VHL KO cells; Homo sapiens, Figure 10 experiment) | EC50 (KBM7 cells) | EC50 (K562 cells) | EC50 (RKO WT cells; Homo sapiens, 72 h, 316 pM to 10 μM, 3 days, n = 6 (Figure 3C, Table S1), read-out: EC50 RKO WT) | EC50 (RKO WT cells; Homo sapiens, RKO WT, 316 pM to 10 μM, n = 6, combination: dBET6 and MZ1 each from 5 μM (Table S7), read-out: EC50 RKO) | EC50 (RKO WT cells; Homo sapiens, WT RKO, 316 pM to 10 μM, n = 3 (Table S4), read-out: EC50 RKO)
Cc1ncsc1-c1ccc([C@H](C)NC(=O)[C@@H]2C[C@@H](O)CN2C(=O)[C@@H](NC(=O)COCC(C)(COCCOCCOCCNc2cc3c(cc2F)C(=O)N(C2CCC(=O)N(C)C2=O)C3=O)COCCOCCOCCOC(=O)C[C@@H]2N=C(c3ccc(Cl)cc3)c3c(sc(C)c3C)-n3c(C)nnc32)C(C)(C)C)cc1 (mixture of isomers) [neg-AB3067 (93), (17S)-11-((2-(2-(2-((6-fluoro-2-(1-methyl-2,6-dioxopiperidin-3-yl)-1,3-dioxoisoindolin-5-yl)amino)ethoxy)ethoxy)ethoxy)methyl)-17-((2S,4R)-4-hydroxy-2-(((S)-1-(4-(4-methylthiazol-5-yl)phenyl)ethyl)carbamoyl)pyrrolidine-1-carbonyl)-11,18,18-trimethyl-15-oxo-3,6,9,13-tetraoxa-16-azanonadecyl 2-((S)-4-(4-chlorophenyl)-2,3,9-trimethyl-6H-thieno[3,2-f][1,2,4]triazolo[4,3-a][1,4]diazepin-6-yl)acetate] | 105 nM | ~106 nM | ~400 nM | 420 nM | ~400 nM | 391 nM | 107 nM | ~106 nM | inactive in VHL KO cells; also recorded: decreased relative to 27 in parental and CRBN KO cells | – | – | – | – | – | – | – | – | – | –
Cc1ncsc1-c1ccc(CNC(=O)[C@@H]2C[C@@H](O)CN2C(=O)[C@@H](NC(=O)COCCOCCOCCNC(=O)C[C@@H]2N=C(c3ccc(Cl)cc3)c3c(sc(C)c3C)-n3c(C)nnc32)C(C)(C)C)cc1 [MZ1, reference compound] | – | 136 nM | – | – | – | – | – | 160 nM | – | > 5000 nM | > 10000 nM | 181 nM | > 10000 nM | > 5000 nM | 66.2 nM | 216 nM | 212 nM | 152 nM | 188 nM
